Laboratory results from patent US10231954B2, “Neurodegenerative therapies” (LYTIX BIOPHARMA AS, priority 2014, dated 2019).

Experiments:
IRAK4 = molecular target: T1, IRAK4 (Homo sapiens, UniProt Q9NWZ3); assay: Kinase profiling IRAK4; format: biochemical
T1 sequence (Q9NWZ3 1-460): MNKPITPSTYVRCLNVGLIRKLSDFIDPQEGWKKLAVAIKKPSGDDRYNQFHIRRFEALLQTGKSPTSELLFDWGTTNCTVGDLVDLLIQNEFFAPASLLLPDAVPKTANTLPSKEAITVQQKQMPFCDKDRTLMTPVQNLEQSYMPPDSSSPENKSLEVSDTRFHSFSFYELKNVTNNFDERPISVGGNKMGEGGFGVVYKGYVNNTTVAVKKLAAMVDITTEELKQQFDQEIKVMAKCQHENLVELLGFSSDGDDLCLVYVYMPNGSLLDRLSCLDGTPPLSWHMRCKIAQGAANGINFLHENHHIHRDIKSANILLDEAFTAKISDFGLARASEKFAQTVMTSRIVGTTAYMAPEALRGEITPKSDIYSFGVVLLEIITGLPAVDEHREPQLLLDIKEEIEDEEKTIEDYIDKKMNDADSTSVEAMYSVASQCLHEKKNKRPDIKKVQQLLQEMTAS
Description: (§1) Any value less that 25 is considered to be highly significant inhibition.

Lck = Lck (Homo sapiens, UniProt P06239); assay: Kinase profiling Lck; format: biochemical
Description: as §1

VEG-FR = assay: Kinase profiling VEG-FR; format: biochemical
Description: as §1

DYRK1A = DYRK1A (Homo sapiens, UniProt Q13627); assay: DYRK 1A assay (kinase profiling); format: biochemical
Protocol: Assays are stopped by addition of 5 μl of 0.5 M (3%) orthophosphoric acid and then harvested onto P81 Unifilter plates with a wash buffer of 50 mM orthophosphoric acid.
as §1

RSK1 = RSK1 (Homo sapiens, UniProt Q15418); assay: Kinase profiling RSK1; format: biochemical
Description: as §1

EF2K = EF2K (Homo sapiens, UniProt O00418); assay: Kinase profiling EF2K; format: biochemical
Description: as §1

TBK1 = molecular target: T2, TBK1 (Homo sapiens, UniProt Q9UHD2); assay: Kinase profiling TBK1; format: biochemical
T2 sequence (Q9UHD2 1-729): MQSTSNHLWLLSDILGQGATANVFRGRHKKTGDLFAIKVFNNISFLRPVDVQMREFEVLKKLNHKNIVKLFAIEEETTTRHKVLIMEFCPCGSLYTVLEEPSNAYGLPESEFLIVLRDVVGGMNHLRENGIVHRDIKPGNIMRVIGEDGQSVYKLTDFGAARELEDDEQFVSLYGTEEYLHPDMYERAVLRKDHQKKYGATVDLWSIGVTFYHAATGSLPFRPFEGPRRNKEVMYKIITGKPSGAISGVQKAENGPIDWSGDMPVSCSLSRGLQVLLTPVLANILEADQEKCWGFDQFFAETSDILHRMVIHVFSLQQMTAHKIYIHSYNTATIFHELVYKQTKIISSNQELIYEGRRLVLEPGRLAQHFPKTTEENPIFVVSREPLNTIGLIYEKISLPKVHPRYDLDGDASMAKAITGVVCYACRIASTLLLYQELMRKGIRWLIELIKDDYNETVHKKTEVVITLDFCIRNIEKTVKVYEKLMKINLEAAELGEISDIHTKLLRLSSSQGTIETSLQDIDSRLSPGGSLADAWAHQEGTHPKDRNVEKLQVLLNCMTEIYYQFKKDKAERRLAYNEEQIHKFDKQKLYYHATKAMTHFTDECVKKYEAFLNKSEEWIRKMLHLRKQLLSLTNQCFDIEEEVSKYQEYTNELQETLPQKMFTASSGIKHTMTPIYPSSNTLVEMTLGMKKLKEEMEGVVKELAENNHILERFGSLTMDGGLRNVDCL
Description: as §1

PDK1 = molecular target: T3, PDK1 (Homo sapiens, UniProt O15530); assay: Kinase profiling PDK1; format: biochemical
T3 sequence (O15530 1-556): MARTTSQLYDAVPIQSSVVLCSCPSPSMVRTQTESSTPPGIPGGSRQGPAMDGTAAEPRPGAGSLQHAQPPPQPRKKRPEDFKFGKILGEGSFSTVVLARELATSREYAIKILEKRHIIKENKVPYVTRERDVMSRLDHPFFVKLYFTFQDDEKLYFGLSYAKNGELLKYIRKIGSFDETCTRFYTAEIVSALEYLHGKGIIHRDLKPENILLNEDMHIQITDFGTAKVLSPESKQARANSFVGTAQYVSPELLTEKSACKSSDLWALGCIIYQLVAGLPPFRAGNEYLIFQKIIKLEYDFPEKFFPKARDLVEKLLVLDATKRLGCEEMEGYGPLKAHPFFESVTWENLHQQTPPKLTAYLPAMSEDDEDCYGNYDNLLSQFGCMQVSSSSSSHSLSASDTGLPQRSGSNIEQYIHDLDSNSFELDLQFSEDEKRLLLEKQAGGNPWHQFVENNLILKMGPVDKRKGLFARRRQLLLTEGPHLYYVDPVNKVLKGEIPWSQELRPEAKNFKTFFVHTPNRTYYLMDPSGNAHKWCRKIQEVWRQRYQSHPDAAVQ
Description: as §1

Src = Src (Homo sapiens, UniProt P12931); assay: Kinase profiling Src; format: biochemical
Description: as §1

HIPK2 = HIPK2 (Homo sapiens, UniProt Q9H2X6); assay: Kinase profiling HIPK2; format: biochemical
Description: as §1

MARK3 = MARK3 (Homo sapiens, UniProt P27448); assay: Kinase profiling MARK3; format: biochemical
Description: as §1

SYK = SYK (Homo sapiens, UniProt P43405); assay: Kinase profiling SYK; format: biochemical
Description: as §1

AMPK (hum) = assay: Kinase profiling AMPK (hum); format: biochemical, human
Description: as §1

PIM1 = PIM1 (Homo sapiens, UniProt P11309); assay: Kinase profiling PIM1; format: biochemical
Description: as §1

[1] = 100 micromolar inhibitor concentration, 100 is no change
[2] = 100 micromolar inhibitor, 100 = no change

Chain of Src (P12931 whole entry, species assumed): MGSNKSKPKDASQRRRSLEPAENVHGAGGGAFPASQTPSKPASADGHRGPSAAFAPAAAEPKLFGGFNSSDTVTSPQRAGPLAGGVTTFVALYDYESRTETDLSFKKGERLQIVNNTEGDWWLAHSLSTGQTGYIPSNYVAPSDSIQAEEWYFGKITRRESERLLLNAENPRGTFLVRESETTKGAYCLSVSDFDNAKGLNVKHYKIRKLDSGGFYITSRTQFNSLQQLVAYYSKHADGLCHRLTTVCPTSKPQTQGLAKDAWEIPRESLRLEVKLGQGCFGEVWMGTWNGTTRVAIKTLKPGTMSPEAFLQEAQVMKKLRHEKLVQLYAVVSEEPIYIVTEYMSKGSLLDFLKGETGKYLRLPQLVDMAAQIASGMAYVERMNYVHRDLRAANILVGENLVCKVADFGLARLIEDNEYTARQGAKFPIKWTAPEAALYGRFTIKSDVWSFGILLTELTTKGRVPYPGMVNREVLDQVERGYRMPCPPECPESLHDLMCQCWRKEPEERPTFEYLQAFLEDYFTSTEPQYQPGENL
Chain of HIPK2 (Q9H2X6 whole entry, species assumed): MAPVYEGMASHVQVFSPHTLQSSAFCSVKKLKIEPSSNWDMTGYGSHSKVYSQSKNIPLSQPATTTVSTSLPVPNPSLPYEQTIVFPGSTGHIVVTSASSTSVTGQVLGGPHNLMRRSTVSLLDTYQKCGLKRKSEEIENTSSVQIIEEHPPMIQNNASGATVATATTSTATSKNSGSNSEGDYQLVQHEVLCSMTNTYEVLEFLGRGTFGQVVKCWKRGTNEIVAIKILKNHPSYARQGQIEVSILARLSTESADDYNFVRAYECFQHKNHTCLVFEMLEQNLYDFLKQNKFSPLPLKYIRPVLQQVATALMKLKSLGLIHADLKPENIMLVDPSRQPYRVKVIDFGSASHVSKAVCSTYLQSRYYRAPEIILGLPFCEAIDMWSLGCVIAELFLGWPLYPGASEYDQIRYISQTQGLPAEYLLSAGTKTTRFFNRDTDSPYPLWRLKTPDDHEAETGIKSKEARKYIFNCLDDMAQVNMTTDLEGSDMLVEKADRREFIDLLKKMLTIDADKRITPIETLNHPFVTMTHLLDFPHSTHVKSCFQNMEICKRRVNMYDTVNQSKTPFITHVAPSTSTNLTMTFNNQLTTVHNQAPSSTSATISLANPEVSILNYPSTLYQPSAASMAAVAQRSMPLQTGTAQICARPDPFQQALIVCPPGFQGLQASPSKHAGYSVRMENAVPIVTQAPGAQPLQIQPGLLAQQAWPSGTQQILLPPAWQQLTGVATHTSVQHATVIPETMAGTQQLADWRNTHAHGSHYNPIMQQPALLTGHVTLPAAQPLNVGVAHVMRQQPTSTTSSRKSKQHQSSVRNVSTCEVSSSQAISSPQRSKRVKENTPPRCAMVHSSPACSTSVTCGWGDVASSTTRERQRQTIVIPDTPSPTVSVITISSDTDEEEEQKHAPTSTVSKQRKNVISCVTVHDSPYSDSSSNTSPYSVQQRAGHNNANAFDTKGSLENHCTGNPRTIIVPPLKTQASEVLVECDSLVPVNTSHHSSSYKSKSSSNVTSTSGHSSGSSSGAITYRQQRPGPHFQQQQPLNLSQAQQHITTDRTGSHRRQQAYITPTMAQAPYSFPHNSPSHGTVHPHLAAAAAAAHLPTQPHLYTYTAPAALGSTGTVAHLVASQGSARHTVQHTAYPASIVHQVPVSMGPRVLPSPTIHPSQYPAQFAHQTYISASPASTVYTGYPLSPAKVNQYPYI
Chain of RSK1 (Q15418 whole entry, species assumed): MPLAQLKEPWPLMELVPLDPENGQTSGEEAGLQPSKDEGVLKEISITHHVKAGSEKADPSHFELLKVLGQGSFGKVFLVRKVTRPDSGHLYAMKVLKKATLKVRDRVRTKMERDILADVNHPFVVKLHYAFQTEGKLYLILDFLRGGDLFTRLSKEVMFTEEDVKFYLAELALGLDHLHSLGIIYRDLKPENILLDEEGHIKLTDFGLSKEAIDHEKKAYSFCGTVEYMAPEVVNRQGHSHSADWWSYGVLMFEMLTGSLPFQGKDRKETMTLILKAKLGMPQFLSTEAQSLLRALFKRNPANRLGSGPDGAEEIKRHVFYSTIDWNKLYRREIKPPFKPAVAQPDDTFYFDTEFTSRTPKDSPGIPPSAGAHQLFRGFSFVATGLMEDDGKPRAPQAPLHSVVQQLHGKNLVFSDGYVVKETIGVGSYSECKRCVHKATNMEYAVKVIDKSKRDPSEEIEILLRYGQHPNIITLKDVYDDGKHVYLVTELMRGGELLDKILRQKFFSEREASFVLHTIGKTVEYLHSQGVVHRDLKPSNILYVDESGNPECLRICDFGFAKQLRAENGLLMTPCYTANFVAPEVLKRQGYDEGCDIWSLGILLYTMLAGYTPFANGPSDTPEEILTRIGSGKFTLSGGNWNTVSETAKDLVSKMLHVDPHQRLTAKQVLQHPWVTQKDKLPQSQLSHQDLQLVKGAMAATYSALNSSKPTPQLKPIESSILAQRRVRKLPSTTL
Chain of Lck (P06239 whole entry, species assumed): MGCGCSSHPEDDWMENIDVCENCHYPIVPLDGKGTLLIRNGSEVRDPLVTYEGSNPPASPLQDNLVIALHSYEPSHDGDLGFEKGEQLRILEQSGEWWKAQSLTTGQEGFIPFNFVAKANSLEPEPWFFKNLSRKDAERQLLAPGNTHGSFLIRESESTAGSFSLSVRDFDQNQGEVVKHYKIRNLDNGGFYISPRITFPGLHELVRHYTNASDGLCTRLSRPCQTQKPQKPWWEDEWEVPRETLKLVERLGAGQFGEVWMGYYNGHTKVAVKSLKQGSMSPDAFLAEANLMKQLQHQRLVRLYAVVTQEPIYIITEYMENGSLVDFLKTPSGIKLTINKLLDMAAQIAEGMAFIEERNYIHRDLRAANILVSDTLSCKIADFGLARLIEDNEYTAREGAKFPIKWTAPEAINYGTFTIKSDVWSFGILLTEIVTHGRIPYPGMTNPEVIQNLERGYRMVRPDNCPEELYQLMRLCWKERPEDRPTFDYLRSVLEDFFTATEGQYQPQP
Chain of MARK3 (P27448 whole entry, species assumed): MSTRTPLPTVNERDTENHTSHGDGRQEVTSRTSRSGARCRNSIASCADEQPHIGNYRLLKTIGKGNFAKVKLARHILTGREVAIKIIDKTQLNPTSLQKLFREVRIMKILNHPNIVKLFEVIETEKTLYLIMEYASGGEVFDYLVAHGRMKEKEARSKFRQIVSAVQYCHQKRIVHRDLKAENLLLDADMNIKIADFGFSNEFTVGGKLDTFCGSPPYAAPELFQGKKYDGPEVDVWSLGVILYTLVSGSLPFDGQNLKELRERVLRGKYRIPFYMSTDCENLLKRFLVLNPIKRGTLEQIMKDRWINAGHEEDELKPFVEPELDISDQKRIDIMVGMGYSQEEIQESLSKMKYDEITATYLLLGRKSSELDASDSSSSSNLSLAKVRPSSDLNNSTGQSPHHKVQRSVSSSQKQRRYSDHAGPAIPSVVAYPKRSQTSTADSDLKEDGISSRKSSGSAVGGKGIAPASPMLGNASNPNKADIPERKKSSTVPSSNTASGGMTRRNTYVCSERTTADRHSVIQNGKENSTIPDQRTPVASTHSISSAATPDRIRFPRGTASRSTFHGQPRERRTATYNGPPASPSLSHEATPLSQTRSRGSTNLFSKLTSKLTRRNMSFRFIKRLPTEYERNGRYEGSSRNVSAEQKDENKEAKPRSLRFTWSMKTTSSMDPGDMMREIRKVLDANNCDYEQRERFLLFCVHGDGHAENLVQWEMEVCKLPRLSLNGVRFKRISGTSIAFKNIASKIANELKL
Chain of PIM1 (P11309 whole entry, species assumed): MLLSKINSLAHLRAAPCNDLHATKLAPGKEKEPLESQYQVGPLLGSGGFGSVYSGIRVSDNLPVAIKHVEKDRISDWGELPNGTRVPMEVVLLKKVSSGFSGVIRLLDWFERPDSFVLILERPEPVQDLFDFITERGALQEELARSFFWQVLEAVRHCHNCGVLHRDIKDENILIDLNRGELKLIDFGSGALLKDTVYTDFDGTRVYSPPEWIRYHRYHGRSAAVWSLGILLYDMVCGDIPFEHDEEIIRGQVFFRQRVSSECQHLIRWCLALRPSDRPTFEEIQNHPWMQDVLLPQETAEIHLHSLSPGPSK

SMILES	residual kinase activity, IRAK4 (IRAK4; [1])	residual kinase activity, Lck (Lck; [1])	residual kinase activity, VEG-FR (VEG-FR; [1])	residual kinase activity, DYRK1A (DYRK1A; [1])	residual kinase activity, RSK1 (RSK1; [1])	residual kinase activity, EF2K (EF2K; [1])	residual kinase activity, TBK1 (TBK1; [1])	residual kinase activity, PDK1 (PDK1; [1])	residual kinase activity, Src (Src; [1])	residual kinase activity, HIPK2 (HIPK2; [1])	residual kinase activity, MARK3 (MARK3; [1])	residual kinase activity, SYK (SYK; [1])	residual kinase activity, AMPK (hum) (AMPK (hum); [1])	residual kinase activity, PIM1 (PIM1; [1])	further results
N#Cc1ccc2nc(NC(=O)c3ccccc3)sc2c1 [Compound 03-106]	70	95	36	3	96	100	94	106	85	62	98	93	80	32	–
COC(=O)c1cccc(C(=O)Nc2nc3cc(OC)ccc3s2)c1 [Compound 03-108]	63	100	77	51	70	91	102	101	169	87	100	96	101	95	–
COC(=O)c1cccc(C(=O)Nc2nc3ccc(F)cc3s2)c1 [Compound 03-110]	96	93	66	13	70	94	96	123	178	66	105	79	69	99	–
COc1ccc2sc(NC(=O)c3cccc(C(N)=O)c3)nc2c1 [Compound 03-113]	58	111	86	51	87	127	98	101	79	96	101	108	96	50	–
O=C(Nc1nc2ccc(O)cc2s1)c1ccncc1 [Compound 08-42]	42	79	20	15	47	79	61	83	62	23	68	90	65	59	–
O=C(Nc1nc2ccc(O)cc2s1)c1cccnc1 [Compound 08-44]	32	82	21	8	41	67	81	77	72	19	65	71	55	42	–
COc1ccc2nc(C(=O)Nc3ccccc3)sc2c1 [Compound 13-03]	–	–	–	–	–	–	–	–	–	–	–	–	–	–	residual kinase activity, IRAK4 (IRAK4; [2]): 93; residual kinase activity, Lck (Lck; [2]): 89; residual kinase activity, VEG-FR (VEG-FR; [2]): 87; residual kinase activity, DYRK1A (DYRK1A; [2]): 45; residual kinase activity, RSK1 (RSK1; [2]): 77; residual kinase activity, EF2K (EF2K; [2]): 110; residual kinase activity, TBK1 (TBK1; [2]): 98; residual kinase activity, PDK1 (PDK1; [2]): 113; residual kinase activity, Src (Src; [2]): 100; residual kinase activity, HIPK2 (HIPK2; [2]): 96; residual kinase activity, MARK3 (MARK3; [2]): 92; residual kinase activity, SYK (SYK; [2]): 37; residual kinase activity, AMPK (hum) (AMPK (hum); [2]): 99; residual kinase activity, PIM1 (PIM1; [2]): 96
CC(=O)Nc1nc2ccc([N+](=O)[O-])cc2s1 [Compound 13-10]	–	–	5	–	–	–	–	–	–	–	–	–	70	–	remaining activity at 100 µM (IRAK4; 100 micromolar inhibitor concentration, 100 is no change, read-out: residual kinase activity, IRAK4): 8%; remaining activity at 100 µM (Lck; 100 micromolar inhibitor concentration, 100 is no change, read-out: residual kinase activity, Lck): 79%; remaining activity at 100 µM (DYRK1A; 100 micromolar inhibitor concentration, 100 is no change, read-out: residual kinase activity, DYRK1A): 6%; remaining activity at 100 µM (RSK1; 100 micromolar inhibitor concentration, 100 is no change, read-out: residual kinase activity, RSK1): 89%; remaining activity at 100 µM (EF2K; 100 micromolar inhibitor concentration, 100 is no change, read-out: residual kinase activity, EF2K): 95%; remaining activity at 100 µM (TBK1; 100 micromolar inhibitor concentration, 100 is no change, read-out: residual kinase activity, TBK1): 89%; remaining activity at 100 µM (PDK1; 100 micromolar inhibitor concentration, 100 is no change, read-out: residual kinase activity, PDK1): 93%; remaining activity at 100 µM (Src; 100 micromolar inhibitor concentration, 100 is no change, read-out: residual kinase activity, Src): 85%; remaining activity at 100 µM (HIPK2; 100 micromolar inhibitor concentration, 100 is no change, read-out: residual kinase activity, HIPK2): 8%; remaining activity at 100 µM (MARK3; 100 micromolar inhibitor concentration, 100 is no change, read-out: residual kinase activity, MARK3): 85%; remaining activity at 100 µM (SYK; 100 micromolar inhibitor concentration, 100 is no change, read-out: residual kinase activity, SYK): 97%; remaining activity at 100 µM (PIM1; 100 micromolar inhibitor concentration, 100 is no change, read-out: residual kinase activity, PIM1): 81%
COc1cccc(NC(=O)Nc2nc3cc(O)ccc3s2)c1 [Compound 13-62]	–	–	–	–	–	–	–	–	–	–	–	–	–	–	residual kinase activity, IRAK4 (IRAK4; [2]): 17; residual kinase activity, Lck (Lck; [2]): 11; residual kinase activity, VEG-FR (VEG-FR; [2]): 7; residual kinase activity, DYRK1A (DYRK1A; [2]): 7; residual kinase activity, RSK1 (RSK1; [2]): 25; residual kinase activity, EF2K (EF2K; [2]): 85; residual kinase activity, TBK1 (TBK1; [2]): 48; residual kinase activity, PDK1 (PDK1; [2]): 77; residual kinase activity, Src (Src; [2]): 7; residual kinase activity, HIPK2 (HIPK2; [2]): 23; residual kinase activity, MARK3 (MARK3; [2]): 12; residual kinase activity, SYK (SYK; [2]): 59; residual kinase activity, AMPK (hum) (AMPK (hum); [2]): 23; residual kinase activity, PIM1 (PIM1; [2]): 14
